Data: article PMC4971072, “Chemically Homogenous Compounds with Antagonistic Properties at All α1-Adrenoceptor Subtypes but not β1-Adrenoceptor Attenuate Adrenaline-Induced Arrhythmia in Rats” (Frontiers in Pharmacology, 2016)
Counter-ions that a name gives are not always drawn.

Test system: α1-adrenergic receptor subtypes
Experiment: Comparison of functional affinities across α1-adrenoceptor subtypes (rat tail artery, mouse spleen, rat aorta)
Type: biochemical
Conditions: from difference in pA2 values
Procedure: The isolated artery, cut into ~4 mm long rings, was then horizontally put up between two stainless steel hooks (diameter 0.15 mm). One hook was fastened to the bottom of the chamber and the other to an isometric FDT10-A force displacement transducer (DMT Model 750TOBS, Denmark), linked with Powerlab 4/26 analyzer (ADInstruments), and processed by LabChart 7 software. […] The initial optimal tissues tension was set at 0.75 g. Chloroethylclonidine (3 μM) as the preferential α1B-adrenoreceptor alkylating agent was used during incubation and after 30 min it was completely washed off. Through 100 min of equilibration tissues were stimulated with noradrenaline (1 μM) four times with washing out until the contractile response become constant. Two cumulative concentration-response curves to noradrenaline, at an interval of 60 min, were established on each arterial ring both in the presence and absence of antagonist. The incubation with antagonists went on for 30 min. The experiments were carried out in the constant presence of yohimbine (0.1 μM) and propranolol (1 μM) to block α2- and β-adrenoceptors, respectively in order to minimize the involvement of these adrenoceptors in the response to noradrenaline.
The influence on α1B-adrenoceptors was evaluated using the isolated mouse spleen. The spleen was removed from male mice right after killing the anesthetized animal by cervical dislocation. […]

With `COc1ccccc1N1CCN(CCCOc2cc(C)cc(C)c2C)CC1` [HBK-19, 1N-[3-(2,3,5-trimethylphenoxy)propyl]-4N-(2-methoxyphenyl)piperazine hydrochloride] the “α1A-adrenoceptor blockade relative to α1B subtype (fold stronger)” value was “around seven-fold”.
